Source: patent US20240317780A1, “RADIOPHARMACEUTICAL SOMATOSTATIN RECEPTOR LIGANDS AND PRECURSORS THEREOF” (Technische Universität München, priority 2021, published 2024)

Molecular target: T1, SST2 (Homo sapiens, UniProt P30874)
T1 construct: expressed in transfected cells; host or cells: CHO (Chinese hamster ovary) cells
Assay: Determination of IC50: competitive binding against [125I]TOC on SST2-transfected CHO cells
Settings: [125I]TOC reference radioligand, 60 min room temperature
Procedure: The SST2-transfected CHO cells were cultivated in Dulbecco's Modified Eagle Medium/Nutrient Mixture F-12 (DMEM/F-12) with Glutamax-I (1:1) (Gibco), supplemented with 10% fetal calf serum (FCS) and maintained at 37° C. in a humidified 5% CO2 atmosphere. […] After removal of the culture medium, the cells were treated once with 300 μL of HBSS-B (Hank's balanced salt solution, Biochrom, Berlin, Germany, with addition of 1% bovine serum albumin (BSA)) and left with 200 μL HBSS-B. Next, 25 μL per well of solutions, containing either HBSS-B (control) or the respective ligand in increasing concentration (10^−10-10^−4 M in HBSS-B, were added with subsequent addition of 25 μL of
[^125I]TOC ([^125I]Tyr^3-Octreotide) (1.0 nM) in HBSS-B. Each concentration is investigated in triplicate. After 60 min incubation at room temperature, the experiment was terminated by removal of the assay medium and consecutive rinsing with 300 μL of cold PBS. The media of both steps were combined in one fraction and represent the amount of unbound radioligand.
Afterwards, the cells were lysed with 300 μL of 1 M NaOH and united with the 300 μL 1 M NaOH of the following wash step. Quantification of bound and unbound radioligand was accomplished in a γ-counter.

T1 sequence (P30874 whole entry, species assumed): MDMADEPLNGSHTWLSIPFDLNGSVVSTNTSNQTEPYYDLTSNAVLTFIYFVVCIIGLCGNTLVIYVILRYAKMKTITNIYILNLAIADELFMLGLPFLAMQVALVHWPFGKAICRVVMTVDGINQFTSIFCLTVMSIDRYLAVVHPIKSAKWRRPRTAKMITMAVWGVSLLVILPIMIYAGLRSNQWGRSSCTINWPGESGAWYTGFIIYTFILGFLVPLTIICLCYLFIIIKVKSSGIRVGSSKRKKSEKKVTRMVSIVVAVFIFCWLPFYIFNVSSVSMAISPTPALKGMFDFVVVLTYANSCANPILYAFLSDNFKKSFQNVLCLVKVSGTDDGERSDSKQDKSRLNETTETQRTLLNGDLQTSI

In order of falling IC50:
1. C[C@@H](O)[C@H](NC(=O)C1CSSCC(NC(=O)C(Cc2ccccc2)NC(=O)CNC(=O)CNC(=O)[C@@H](CC(=O)O)NC(=O)C(CC(=O)O)NC(=O)[C@@H](CNC(=O)CC[C@H](C(=O)O)N2CCN(CC(=O)O)CCN(CC(=O)O)CCN(CC(=O)O)CC2)NC(=O)C(CN)NC(=O)c2ccc([Si](F)(C(C)(C)C)C(C)(C)C)cc2)C(=O)N[C@@H](Cc2ccc(O)cc2)C(=O)NC(Cc2c[nH]c3ccccc23)C(=O)N[C@@H](CCCCN)C(=O)N[C@@H]([C@@H](C)O)C(=O)N1)C(=O)O (stereo partly drawn) (natGa complex, metal not drawn) [[Ga]20]  12.7 ± 1 nM
2. C[C@@H](O)[C@H](NC(=O)C1CSSCC(NC(=O)C(Cc2ccccc2)NC(=O)CNC(=O)CNC(=O)CNC(=O)C(CC(=O)O)NC(=O)[C@@H](CC(=O)O)NC(=O)C(CCC(=O)O)NC(=O)[C@@H](CNC(=O)C[N+](C)(C)Cc2ccc([Si](F)(C(C)(C)C)C(C)(C)C)cc2)NC(=O)CN2CCN(CC(=O)O)CCN(CC(=O)O)CCN(CC(=O)O)CC2)C(=O)N[C@@H](Cc2ccc(O)cc2)C(=O)NC(Cc2c[nH]c3ccccc23)C(=O)N[C@@H](CCCCN)C(=O)N[C@@H]([C@@H](C)O)C(=O)N1)C(=O)O (stereo partly drawn) (natGa complex, metal not drawn) [[Ga]47]  7.58 ± 0.58 nM
3. C[C@@H](O)[C@H](NC(=O)C1CSSCC(NC(=O)C(Cc2ccccc2)NC(=O)CNC(=O)CNC(=O)CNC(=O)C(CC(=O)O)NC(=O)[C@@H](CC(=O)O)NC(=O)C(CNC(=O)C[N+](C)(C)Cc2ccc([Si](F)(C(C)(C)C)C(C)(C)C)cc2)NC(=O)CN2CCN(CC(=O)O)CCN(CC(=O)O)CCN(CC(=O)O)CC2)C(=O)N[C@@H](Cc2ccc(O)cc2)C(=O)NC(Cc2c[nH]c3ccccc23)C(=O)N[C@@H](CCCCN)C(=O)N[C@@H]([C@@H](C)O)C(=O)N1)C(=O)O (stereo partly drawn) (natGa complex, metal not drawn) [[Ga]44]  5.45 ± 0.5 nM

Test system: not listed separately
Assay: Octanol-water distribution coefficient (logD pH 7.4) of the labeled tracer
Type: physicochemical
Settings: n-octanol/PBS pH 7.4, room temperature
Procedure: Approximately 1 MBq of the labeled tracer was dissolved in 1 mL of a 1:1 mixture (by volumes) of phosphate buffered saline (PBS, pH 7.4) and n-octanol in an Eppendorf tube. After vigorous mixing of the suspension for 3 minutes at room temperature, the vial was centrifuged at 15000 g for 5 minutes (Biofuge 15, Heraus Sepatech, Osterode, Germany) and 100 μL aliquots of both layers were measured in a gamma counter. The experiment was repeated at least six times.

In order of falling “LogDpH=7.4” value:
1. C[C@@H](O)[C@H](NC(=O)C1CSSCC(NC(=O)C(Cc2ccccc2)NC(=O)CNC(=O)CNC(=O)[C@@H](CC(=O)O)NC(=O)C(CC(=O)O)NC(=O)[C@@H](CNC(=O)CN2CCN(CC(=O)O)CCN(CC(=O)O)CCN(CC(=O)O)CC2)NC(=O)C(CN)NC(=O)c2ccc([Si](F)(C(C)(C)C)C(C)(C)C)cc2)C(=O)N[C@@H](Cc2ccc(O)cc2)C(=O)NC(Cc2c[nH]c3ccccc23)C(=O)N[C@@H](CCCCN)C(=O)N[C@@H]([C@@H](C)O)C(=O)N1)C(=O)O (stereo partly drawn) [[Lu]19]  −1.85 ± 0.02
2. C[C@@H](O)[C@H](NC(=O)C1CSSCC(NC(=O)C(Cc2ccccc2)NC(=O)COCCOCCNC(=O)C(CC(=O)O)NC(=O)[C@@H](CC(=O)O)NC(=O)C(CNC(=O)c2ccc([Si](F)(C(C)(C)C)C(C)(C)C)cc2)NC(=O)CN2CCN(CC(=O)O)CCN(CC(=O)O)CCN(CC(=O)O)CC2)C(=O)N[C@@H](Cc2ccc(O)cc2)C(=O)NC(Cc2c[nH]c3ccccc23)C(=O)N[C@@H](CCCCN)C(=O)N[C@@H]([C@@H](C)O)C(=O)N1)C(=O)O (stereo partly drawn) (natGa complex, metal not drawn) [[Ga]3]  −1.87 ± 0.07
3. C[C@@H](O)[C@H](NC(=O)C1CSSCC(NC(=O)C(Cc2ccccc2)NC(=O)CNC(=O)CNC(=O)[C@@H](CC(=O)O)NC(=O)C(CC(=O)O)NC(=O)[C@@H](CNC(=O)CN2CCN(CC(=O)O)CCN(CC(=O)O)CCN(CC(=O)O)CC2)NC(=O)C[N+](C)(C)Cc2ccc([Si](F)(C(C)(C)C)C(C)(C)C)cc2)C(=O)N[C@@H](Cc2ccc(O)cc2)C(=O)NC(Cc2c[nH]c3ccccc23)C(=O)N[C@@H](CCCCN)C(=O)N[C@@H]([C@@H](C)O)C(=O)N1)C(=O)O (stereo partly drawn) [[Lu]24]  −1.90 ± 0.05
4. C[C@@H](O)[C@H](NC(=O)C1CSSCC(NC(=O)C(Cc2ccccc2)NC(=O)CNC(=O)CNC(=O)CNC(=O)C(CC(=O)O)NC(=O)[C@@H](CC(=O)O)NC(=O)C(CNC(=O)C[N+](C)(C)Cc2ccc([Si](F)(C(C)(C)C)C(C)(C)C)cc2)NC(=O)CN2CCN(CC(=O)O)CCN(CC(=O)O)CCN(CC(=O)O)CC2)C(=O)N[C@@H](Cc2ccc(O)cc2)C(=O)NC(Cc2c[nH]c3ccccc23)C(=O)N[C@@H](CCCCN)C(=O)N[C@@H]([C@@H](C)O)C(=O)N1)C(=O)O (stereo partly drawn) [[Lu]44]  −1.98 ± 0.05
5. C[C@@H](O)[C@H](NC(=O)C1CSSCC(NC(=O)C(Cc2ccccc2)NC(=O)COCCOCCNC(=O)C(CC(=O)O)NC(=O)[C@@H](CC(=O)O)NC(=O)C(CNC(=O)c2ccc([Si](F)(C(C)(C)C)C(C)(C)C)cc2)NC(=O)CCC(C(=O)O)N2CCN(CC(=O)O)CCN(CC(=O)O)CCN(CC(=O)O)CC2)C(=O)N[C@@H](Cc2ccc(O)cc2)C(=O)NC(Cc2c[nH]c3ccccc23)C(=O)N[C@@H](CCCCN)C(=O)N[C@@H]([C@@H](C)O)C(=O)N1)C(=O)O (stereo partly drawn) (natGa complex, metal not drawn) [[Ga]1]  −2.02 ± 0.04
6. C[C@@H](O)[C@H](NC(=O)C1CSSCC(NC(=O)C(Cc2ccccc2)NC(=O)CNC(=O)CNC(=O)CNC(=O)C(CC(=O)O)NC(=O)[C@@H](CC(=O)O)NC(=O)C(CCCCN)NC(=O)[C@@H](CNC(=O)C[N+](C)(C)Cc2ccc([Si](F)(C(C)(C)C)C(C)(C)C)cc2)NC(=O)CN2CCN(CC(=O)O)CCN(CC(=O)O)CCN(CC(=O)O)CC2)C(=O)N[C@@H](Cc2ccc(O)cc2)C(=O)NC(Cc2c[nH]c3ccccc23)C(=O)N[C@@H](CCCCN)C(=O)N[C@@H]([C@@H](C)O)C(=O)N1)C(=O)O (stereo partly drawn) [[Lu]45]  −2.10 ± 0.08
7. C[C@@H](O)[C@H](NC(=O)C1CSSCC(NC(=O)C(Cc2ccccc2)NC(=O)CNC(=O)CNC(=O)CNC(=O)C(CC(=O)O)NC(=O)[C@@H](CC(=O)O)NC(=O)C(CCCNC(N)=O)NC(=O)[C@@H](CNC(=O)C[N+](C)(C)Cc2ccc([Si](F)(C(C)(C)C)C(C)(C)C)cc2)NC(=O)CN2CCN(CC(=O)O)CCN(CC(=O)O)CCN(CC(=O)O)CC2)C(=O)N[C@@H](Cc2ccc(O)cc2)C(=O)NC(Cc2c[nH]c3ccccc23)C(=O)N[C@@H](CCCCN)C(=O)N[C@@H]([C@@H](C)O)C(=O)N1)C(=O)O (stereo partly drawn) [[Lu]46]  −2.12 ± 0.05
8. C[C@@H](O)[C@H](NC(=O)C1CSSCC(NC(=O)C(Cc2ccccc2)NC(=O)COCCOCCNC(=O)C(CC(=O)O)NC(=O)[C@@H](CC(=O)O)NC(=O)C(CNC(=O)CN2CCN(CC(=O)O)CCN(CC(=O)O)CCN(CC(=O)O)CC2)NC(=O)c2ccc([Si](F)(C(C)(C)C)C(C)(C)C)cc2)C(=O)N[C@@H](Cc2ccc(O)cc2)C(=O)NC(Cc2c[nH]c3ccccc23)C(=O)N[C@@H](CCCCN)C(=O)N[C@@H]([C@@H](C)O)C(=O)N1)C(=O)O (stereo partly drawn) (natGa complex, metal not drawn) [[Ga]4]  −2.15 ± 0.11
9. C[C@@H](O)[C@H](NC(=O)C1CSSCC(NC(=O)C(Cc2ccccc2)NC(=O)[C@@H](CC(N)=O)NC(=O)C(CC(N)=O)NC(=O)[C@@H](CC(=O)O)NC(=O)C(CC(=O)O)NC(=O)[C@@H](CNC(=O)CN2CCN(CC(=O)O)CCN(CC(=O)O)CCN(CC(=O)O)CC2)NC(=O)C[N+](C)(C)Cc2ccc([Si](F)(C(C)(C)C)C(C)(C)C)cc2)C(=O)N[C@@H](Cc2ccc(O)cc2)C(=O)NC(Cc2c[nH]c3ccccc23)C(=O)N[C@@H](CCCCN)C(=O)N[C@@H]([C@@H](C)O)C(=O)N1)C(=O)O (stereo partly drawn) [[Lu]48]  −2.19 ± 0.05
10. C[C@@H](O)[C@H](NC(=O)C1CSSCC(NC(=O)C(Cc2ccccc2)NC(=O)[C@@H](CC(N)=O)NC(=O)C(CC(N)=O)NC(=O)CNC(=O)C(CC(=O)O)NC(=O)[C@@H](CC(=O)O)NC(=O)C(CNC(=O)CN2CCN(CC(=O)O)CCN(CC(=O)O)CCN(CC(=O)O)CC2)NC(=O)C[N+](C)(C)Cc2ccc([Si](F)(C(C)(C)C)C(C)(C)C)cc2)C(=O)N[C@@H](Cc2ccc(O)cc2)C(=O)NC(Cc2c[nH]c3ccccc23)C(=O)N[C@@H](CCCCN)C(=O)N[C@@H]([C@@H](C)O)C(=O)N1)C(=O)O (stereo partly drawn) [[Lu]49]  −2.24 ± 0.06
11. C[C@@H](O)[C@H](NC(=O)C1CSSCC(NC(=O)C(Cc2ccccc2)NC(=O)CNC(=O)CNC(=O)CNC(=O)C(CC(=O)O)NC(=O)[C@@H](CC(=O)O)NC(=O)C(CCC(=O)O)NC(=O)[C@@H](CNC(=O)C[N+](C)(C)Cc2ccc([Si](F)(C(C)(C)C)C(C)(C)C)cc2)NC(=O)CN2CCN(CC(=O)O)CCN(CC(=O)O)CCN(CC(=O)O)CC2)C(=O)N[C@@H](Cc2ccc(O)cc2)C(=O)NC(Cc2c[nH]c3ccccc23)C(=O)N[C@@H](CCCCN)C(=O)N[C@@H]([C@@H](C)O)C(=O)N1)C(=O)O (stereo partly drawn) [[Lu]47]  −2.29 ± 0.03
12. C[C@@H](O)[C@H](NC(=O)C1CSSCC(NC(=O)C(Cc2ccccc2)NC(=O)COCCOCCNC(=O)C(CC(=O)O)NC(=O)[C@@H](CC(=O)O)NC(=O)C(CNC(=O)CCC(C(=O)O)N2CCN(CC(=O)O)CCN(CC(=O)O)CCN(CC(=O)O)CC2)NC(=O)c2ccc([Si](F)(C(C)(C)C)C(C)(C)C)cc2)C(=O)N[C@@H](Cc2ccc(O)cc2)C(=O)NC(Cc2c[nH]c3ccccc23)C(=O)N[C@@H](CCCCN)C(=O)N[C@@H]([C@@H](C)O)C(=O)N1)C(=O)O (stereo partly drawn) (natGa complex, metal not drawn) [[Ga]2]  −2.3 ± 0.09
